Key:
[1] = test system: Tyrosine-protein kinase ABL1 (Homo sapiens), P00519 [E255K]; test: Inhibition of ABL1 E255K mutant (unknown origin) assessed as remaining activity at 1 uM by Kinome scan method relative to control
[2] = molecular target: Casein kinase II subunit alpha (Homo sapiens) (UniProt P68400); test: Inhibition of CSNK2A1 (unknown origin) assessed as remaining activity at 1 uM by Kinome scan method relative to control
[3] = molecular target: Death-associated protein kinase 2 (Homo sapiens) (UniProt Q9UIK4); test: Inhibition of DAPK2 (unknown origin) assessed as remaining activity at 1 uM by Kinome scan method relative to control
[4] = molecular target: Epithelial discoidin domain-containing receptor 1 (Homo sapiens) (UniProt Q08345); test: Inhibition of DDR1 (unknown origin) assessed as remaining activity at 1 uM by Kinome scan method relative to control
[5] = molecular target: Serine/threonine-protein kinase ICK (Homo sapiens) (UniProt Q9UPZ9); test: Inhibition of ICK (unknown origin) assessed as remaining activity at 1 uM by Kinome scan method relative to control
[6] = molecular target: Insulin receptor (Homo sapiens) (UniProt P06213); test: Inhibition of INSR (unknown origin) assessed as remaining activity at 1 uM by Kinome scan method relative to control
[7] = molecular target: MAP/microtubule affinity-regulating kinase 3 (Homo sapiens) (UniProt P27448); test: Inhibition of MARK3 (unknown origin) assessed as remaining activity at 1 uM by Kinome scan method relative to control
[8] = molecular target: Microtubule-associated serine/threonine-protein kinase 1 (Homo sapiens) (UniProt Q9Y2H9); test: Inhibition of MAST1 (unknown origin) assessed as remaining activity at 1 uM by Kinome scan method relative to control
[9] = molecular target: Cyclin-dependent kinase 18 (Homo sapiens) (UniProt Q07002); test: Inhibition of PCTK3 (unknown origin) assessed as remaining activity at 1 uM by Kinome scan method relative to control
[10] = molecular target: T1, Serine/threonine-protein kinase D1 (Homo sapiens) (UniProt Q15139); test: Inhibition of PRKD1 (unknown origin) assessed as remaining activity at 1 uM by Kinome scan method relative to control
T1 sequence (whole entry): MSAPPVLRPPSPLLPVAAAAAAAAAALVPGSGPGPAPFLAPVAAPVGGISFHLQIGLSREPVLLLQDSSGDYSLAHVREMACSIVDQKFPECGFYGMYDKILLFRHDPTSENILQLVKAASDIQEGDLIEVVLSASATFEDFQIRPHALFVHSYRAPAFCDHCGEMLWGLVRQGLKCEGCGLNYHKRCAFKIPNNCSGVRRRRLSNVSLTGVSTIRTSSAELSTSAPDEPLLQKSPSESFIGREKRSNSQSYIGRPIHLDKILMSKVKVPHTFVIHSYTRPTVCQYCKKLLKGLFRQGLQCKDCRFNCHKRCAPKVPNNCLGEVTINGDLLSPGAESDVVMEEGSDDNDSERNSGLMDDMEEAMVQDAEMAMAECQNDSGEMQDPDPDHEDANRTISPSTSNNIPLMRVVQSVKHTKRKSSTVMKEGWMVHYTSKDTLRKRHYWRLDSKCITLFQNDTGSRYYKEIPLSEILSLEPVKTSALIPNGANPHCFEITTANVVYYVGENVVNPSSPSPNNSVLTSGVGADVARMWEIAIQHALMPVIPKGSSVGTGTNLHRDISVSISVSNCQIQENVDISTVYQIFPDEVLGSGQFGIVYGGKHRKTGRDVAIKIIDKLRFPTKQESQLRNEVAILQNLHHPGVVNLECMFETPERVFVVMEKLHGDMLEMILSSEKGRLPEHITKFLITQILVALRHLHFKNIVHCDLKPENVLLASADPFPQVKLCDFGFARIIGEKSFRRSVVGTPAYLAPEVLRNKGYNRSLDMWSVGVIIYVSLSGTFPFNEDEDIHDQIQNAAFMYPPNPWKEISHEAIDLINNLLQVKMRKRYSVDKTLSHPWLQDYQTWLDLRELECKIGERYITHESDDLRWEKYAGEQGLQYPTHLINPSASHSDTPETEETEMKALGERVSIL

[11] = molecular target: T2, TGF-beta receptor type-1 (Homo sapiens) (UniProt P36897); test: Inhibition of TGFBR1 (unknown origin) assessed as remaining activity at 1 uM by Kinome scan method relative to control
T2 sequence (whole entry): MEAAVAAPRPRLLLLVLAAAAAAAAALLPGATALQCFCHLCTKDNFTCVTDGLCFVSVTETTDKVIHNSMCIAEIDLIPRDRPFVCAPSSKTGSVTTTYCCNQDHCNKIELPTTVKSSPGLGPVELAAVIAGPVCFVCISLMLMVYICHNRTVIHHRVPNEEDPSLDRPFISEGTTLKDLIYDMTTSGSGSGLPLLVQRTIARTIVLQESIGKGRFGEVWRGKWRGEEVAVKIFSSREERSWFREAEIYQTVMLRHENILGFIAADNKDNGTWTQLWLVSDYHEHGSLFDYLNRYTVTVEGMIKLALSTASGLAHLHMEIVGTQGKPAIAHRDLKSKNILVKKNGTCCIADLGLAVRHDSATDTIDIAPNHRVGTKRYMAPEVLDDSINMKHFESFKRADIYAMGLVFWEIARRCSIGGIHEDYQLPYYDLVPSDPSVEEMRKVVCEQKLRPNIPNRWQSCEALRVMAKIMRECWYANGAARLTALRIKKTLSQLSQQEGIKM

[12] = molecular target: Tyrosine-protein kinase receptor Tie-1 (Homo sapiens) (UniProt P35590); test: Inhibition of TIE1 (unknown origin) assessed as remaining activity at 1 uM by Kinome scan method relative to control
[13] = molecular target: Non-receptor tyrosine-protein kinase TNK1 (Homo sapiens) (UniProt Q13470); test: Inhibition of TNK1 (unknown origin) assessed as remaining activity at 1 uM by Kinome scan method relative to control
[14] = molecular target: NT-3 growth factor receptor (Homo sapiens) (UniProt Q16288); test: Inhibition of TRKC (unknown origin) assessed as remaining activity at 1 uM by Kinome scan method relative to control
[15] = molecular target: T3, Testis-specific serine/threonine-protein kinase 1 (Homo sapiens) (UniProt Q9BXA7); test: Inhibition of TSSK1B (unknown origin) assessed as remaining activity at 1 uM by Kinome scan method relative to control
T3 sequence (whole entry): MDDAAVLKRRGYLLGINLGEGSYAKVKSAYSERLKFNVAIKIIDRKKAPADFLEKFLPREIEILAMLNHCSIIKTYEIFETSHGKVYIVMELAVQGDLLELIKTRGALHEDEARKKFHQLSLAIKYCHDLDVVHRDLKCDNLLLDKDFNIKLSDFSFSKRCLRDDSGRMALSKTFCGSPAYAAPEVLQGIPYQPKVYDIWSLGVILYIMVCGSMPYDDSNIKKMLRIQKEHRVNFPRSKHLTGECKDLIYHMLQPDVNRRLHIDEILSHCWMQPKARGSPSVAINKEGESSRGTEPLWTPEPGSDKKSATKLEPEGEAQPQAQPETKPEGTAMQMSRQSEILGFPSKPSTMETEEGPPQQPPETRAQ

Non-receptor tyrosine-protein kinase TNK1 (Homo sapiens), sequence (Q13470 whole entry): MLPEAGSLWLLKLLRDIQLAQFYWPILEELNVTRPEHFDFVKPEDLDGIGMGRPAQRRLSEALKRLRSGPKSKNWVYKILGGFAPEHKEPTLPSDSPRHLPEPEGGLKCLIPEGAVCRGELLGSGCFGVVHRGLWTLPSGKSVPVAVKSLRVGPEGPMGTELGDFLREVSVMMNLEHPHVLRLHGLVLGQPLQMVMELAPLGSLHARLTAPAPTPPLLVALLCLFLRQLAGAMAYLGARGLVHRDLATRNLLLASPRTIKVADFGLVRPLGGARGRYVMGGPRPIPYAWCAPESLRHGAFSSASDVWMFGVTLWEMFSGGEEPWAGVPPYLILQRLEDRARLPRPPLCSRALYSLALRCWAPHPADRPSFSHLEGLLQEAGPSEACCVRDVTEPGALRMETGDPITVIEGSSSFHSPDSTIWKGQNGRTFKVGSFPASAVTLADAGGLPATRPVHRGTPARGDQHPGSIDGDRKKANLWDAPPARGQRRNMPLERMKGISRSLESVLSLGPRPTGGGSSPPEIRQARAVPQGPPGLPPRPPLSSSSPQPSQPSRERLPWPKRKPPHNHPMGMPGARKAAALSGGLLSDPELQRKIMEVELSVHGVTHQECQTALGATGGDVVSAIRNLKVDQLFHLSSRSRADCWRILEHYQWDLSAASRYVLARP
Cyclin-dependent kinase 18 (Homo sapiens), sequence (Q07002 whole entry): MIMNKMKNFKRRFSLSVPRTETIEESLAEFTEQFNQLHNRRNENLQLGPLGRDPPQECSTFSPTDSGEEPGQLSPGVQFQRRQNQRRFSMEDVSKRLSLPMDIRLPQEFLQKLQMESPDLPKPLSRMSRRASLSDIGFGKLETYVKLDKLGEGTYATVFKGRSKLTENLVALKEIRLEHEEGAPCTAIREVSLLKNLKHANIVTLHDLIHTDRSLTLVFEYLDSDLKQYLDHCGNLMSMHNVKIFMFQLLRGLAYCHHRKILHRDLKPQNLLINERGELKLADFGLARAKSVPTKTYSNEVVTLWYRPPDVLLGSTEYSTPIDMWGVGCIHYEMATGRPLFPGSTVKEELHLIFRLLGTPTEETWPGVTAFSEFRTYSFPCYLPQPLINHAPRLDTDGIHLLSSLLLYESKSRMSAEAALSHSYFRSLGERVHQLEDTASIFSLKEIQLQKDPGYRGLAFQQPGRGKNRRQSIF
Death-associated protein kinase 2 (Homo sapiens), sequence (Q9UIK4 whole entry, looked up, the tested form may be a part): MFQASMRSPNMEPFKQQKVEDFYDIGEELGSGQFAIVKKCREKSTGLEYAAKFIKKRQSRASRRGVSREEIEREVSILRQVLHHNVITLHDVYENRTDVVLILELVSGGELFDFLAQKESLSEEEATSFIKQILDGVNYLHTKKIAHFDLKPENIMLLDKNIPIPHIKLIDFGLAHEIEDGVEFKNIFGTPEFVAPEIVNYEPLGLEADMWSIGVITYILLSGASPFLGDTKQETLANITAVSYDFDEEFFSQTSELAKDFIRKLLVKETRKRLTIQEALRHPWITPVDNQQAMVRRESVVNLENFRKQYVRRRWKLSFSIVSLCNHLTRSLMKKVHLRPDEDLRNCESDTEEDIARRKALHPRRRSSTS
Casein kinase II subunit alpha (Homo sapiens), sequence (P68400 whole entry, looked up): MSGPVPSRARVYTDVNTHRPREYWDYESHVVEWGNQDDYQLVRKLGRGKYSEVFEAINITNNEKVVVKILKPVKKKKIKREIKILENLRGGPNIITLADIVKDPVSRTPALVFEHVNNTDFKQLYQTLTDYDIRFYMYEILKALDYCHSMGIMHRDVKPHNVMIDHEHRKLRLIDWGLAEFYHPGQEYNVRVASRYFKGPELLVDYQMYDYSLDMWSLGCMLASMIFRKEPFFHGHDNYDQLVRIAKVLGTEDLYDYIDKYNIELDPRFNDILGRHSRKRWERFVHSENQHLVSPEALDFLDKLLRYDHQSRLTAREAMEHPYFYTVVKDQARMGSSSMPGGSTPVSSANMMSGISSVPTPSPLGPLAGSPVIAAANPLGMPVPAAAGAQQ
Tyrosine-protein kinase receptor Tie-1 (Homo sapiens), sequence (P35590 whole entry): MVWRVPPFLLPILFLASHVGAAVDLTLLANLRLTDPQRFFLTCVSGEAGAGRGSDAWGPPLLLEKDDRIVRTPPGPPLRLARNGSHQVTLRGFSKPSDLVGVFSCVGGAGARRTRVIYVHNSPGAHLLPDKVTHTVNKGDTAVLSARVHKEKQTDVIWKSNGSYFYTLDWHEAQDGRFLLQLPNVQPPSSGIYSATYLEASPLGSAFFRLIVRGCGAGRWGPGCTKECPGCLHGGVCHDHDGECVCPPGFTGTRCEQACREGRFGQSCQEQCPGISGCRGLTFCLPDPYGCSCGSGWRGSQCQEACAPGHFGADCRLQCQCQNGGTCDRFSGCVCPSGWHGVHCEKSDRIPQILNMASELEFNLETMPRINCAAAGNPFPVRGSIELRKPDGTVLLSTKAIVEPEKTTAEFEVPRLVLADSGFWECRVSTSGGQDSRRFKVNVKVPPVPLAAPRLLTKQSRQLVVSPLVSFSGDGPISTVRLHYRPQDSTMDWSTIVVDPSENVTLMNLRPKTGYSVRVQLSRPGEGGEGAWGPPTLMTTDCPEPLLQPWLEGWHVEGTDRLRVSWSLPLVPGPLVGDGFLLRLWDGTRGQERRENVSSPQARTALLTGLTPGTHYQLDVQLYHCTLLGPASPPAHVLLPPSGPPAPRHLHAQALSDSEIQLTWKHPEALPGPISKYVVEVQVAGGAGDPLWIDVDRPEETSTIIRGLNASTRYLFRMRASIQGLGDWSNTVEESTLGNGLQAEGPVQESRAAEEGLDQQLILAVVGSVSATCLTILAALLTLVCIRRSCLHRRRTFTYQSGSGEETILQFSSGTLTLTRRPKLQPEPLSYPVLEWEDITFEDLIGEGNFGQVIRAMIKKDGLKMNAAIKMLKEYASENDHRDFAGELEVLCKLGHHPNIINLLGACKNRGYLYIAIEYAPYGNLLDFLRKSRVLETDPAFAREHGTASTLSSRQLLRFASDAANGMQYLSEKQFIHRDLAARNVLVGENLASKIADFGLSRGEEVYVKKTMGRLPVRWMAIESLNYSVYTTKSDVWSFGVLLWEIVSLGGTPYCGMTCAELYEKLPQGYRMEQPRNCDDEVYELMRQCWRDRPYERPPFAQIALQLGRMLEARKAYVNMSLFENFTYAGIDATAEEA
Serine/threonine-protein kinase ICK (Homo sapiens), sequence (Q9UPZ9 whole entry): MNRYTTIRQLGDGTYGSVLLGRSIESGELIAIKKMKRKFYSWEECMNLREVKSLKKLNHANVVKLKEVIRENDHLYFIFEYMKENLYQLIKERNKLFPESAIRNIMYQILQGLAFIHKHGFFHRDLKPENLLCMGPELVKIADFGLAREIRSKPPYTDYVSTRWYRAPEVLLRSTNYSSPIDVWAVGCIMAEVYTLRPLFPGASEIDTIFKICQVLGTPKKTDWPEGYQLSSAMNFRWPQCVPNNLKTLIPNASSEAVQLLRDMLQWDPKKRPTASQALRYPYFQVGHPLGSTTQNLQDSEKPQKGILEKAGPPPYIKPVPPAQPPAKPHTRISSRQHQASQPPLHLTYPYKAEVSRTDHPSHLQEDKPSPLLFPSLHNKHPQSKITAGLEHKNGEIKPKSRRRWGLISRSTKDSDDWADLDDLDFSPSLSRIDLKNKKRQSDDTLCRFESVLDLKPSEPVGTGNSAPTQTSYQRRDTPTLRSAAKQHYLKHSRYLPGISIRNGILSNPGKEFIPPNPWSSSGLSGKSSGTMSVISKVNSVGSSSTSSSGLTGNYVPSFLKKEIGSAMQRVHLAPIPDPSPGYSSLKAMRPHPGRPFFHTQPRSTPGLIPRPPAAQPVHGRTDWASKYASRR
NT-3 growth factor receptor (Homo sapiens), sequence (Q16288 32-839 limits assumed): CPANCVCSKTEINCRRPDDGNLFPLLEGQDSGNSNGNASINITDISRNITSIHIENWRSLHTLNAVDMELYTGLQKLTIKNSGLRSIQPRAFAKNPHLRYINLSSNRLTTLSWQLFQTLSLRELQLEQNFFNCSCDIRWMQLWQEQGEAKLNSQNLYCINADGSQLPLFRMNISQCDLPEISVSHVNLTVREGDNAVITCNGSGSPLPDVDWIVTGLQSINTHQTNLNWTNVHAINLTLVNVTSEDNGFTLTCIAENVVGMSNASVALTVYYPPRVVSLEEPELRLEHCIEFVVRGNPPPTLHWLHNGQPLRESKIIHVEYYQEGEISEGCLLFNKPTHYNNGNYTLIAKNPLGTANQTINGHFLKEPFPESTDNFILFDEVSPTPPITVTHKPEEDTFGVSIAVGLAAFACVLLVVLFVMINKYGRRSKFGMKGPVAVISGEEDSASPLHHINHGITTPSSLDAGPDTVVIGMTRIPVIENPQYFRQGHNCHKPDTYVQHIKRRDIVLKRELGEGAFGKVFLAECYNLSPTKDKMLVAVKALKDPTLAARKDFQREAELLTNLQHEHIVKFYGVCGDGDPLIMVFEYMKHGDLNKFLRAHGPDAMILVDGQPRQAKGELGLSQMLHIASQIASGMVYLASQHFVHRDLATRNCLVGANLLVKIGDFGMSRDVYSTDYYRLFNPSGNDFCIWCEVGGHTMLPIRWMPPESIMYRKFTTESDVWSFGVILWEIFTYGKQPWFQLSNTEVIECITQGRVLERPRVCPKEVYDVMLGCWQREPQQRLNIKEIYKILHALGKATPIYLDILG

SMILES	Activity [1]	Activity [2]	Activity [3]	Activity [4]	Activity [5]	Activity [6]	Activity [7]	Activity [8]	Activity [9]	Activity [10]	Activity [11]	Activity [12]	Activity [13]	Activity [14]	Activity [15]
Nc1ccccc1Nc1ccc2c(c1)CCc1ccccc1C2=O	81%	86%	99%	80%	83%	83%	82%	79%	94%	91%	90%	96%	90%	86%	95%
O=C1c2ccc(Nc3ccc(F)cc3F)cc2CCc2ccc(OC[C@H](O)CO)cc21 [Skepinone-L]	96%	96%	93%	85%	99%	99%	90%	85%	78%	100%	100%	100%	79%	100%	84%
